Assay results from PubChem BioAssay (NCI).
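Protocol summary: plate cells (96-well), add compound at 5 concentrations, incubate 48 h, interpolate endpoints linearly. The concentration for full growth arrest is given as TGI.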

Legend:
Test in all cases: growth of human tumour cells (NCI), 48 h
[1] = system: 786-0 renal
[2] = system: A498 renal
[3] = system: A549 NSCLC
[4] = system: ACHN renal
[5] = system: BT-549 breast
[6] = system: CCRF-CEM leukemia
[7] = system: COLO 205 colon
[8] = system: EKVX NSCLC
[9] = system: HCC-2998 colon
[10] = system: HCT-116 colon
[11] = system: HCT-15 colon
[12] = system: HL-60(TB) leukemia
[13] = system: HOP-62 NSCLC
[14] = system: HOP-92 NSCLC
[15] = system: HS 578T breast
[16] = system: HT29 colon
[17] = system: IGROV1 ovarian
[18] = system: K-562 leukemia
[19] = system: KM12 colon
[20] = system: M14 melanoma
[21] = system: MALME-3M melanoma
[22] = system: MCF7 breast
[23] = system: MDA-MB-231 breast
[24] = system: MDA-N
[25] = system: MOLT-4 leukemia
[26] = system: NCI-H226 lung
[27] = system: NCI-H23 lung
[28] = system: NCI-H460 lung
[29] = system: OVCAR-5 ovarian
[30] = system: OVCAR-8 ovarian
[31] = system: PC-3 prostate
[32] = system: RPMI-8226 leukemia
[33] = system: RXF 393 renal
[34] = system: SK-MEL-2 melanoma
[35] = system: SK-MEL-28 melanoma
[36] = system: SK-MEL-5 melanoma
[37] = system: SN12C renal
[38] = system: SNB-19 CNS
[39] = system: SNB-75 CNS
[40] = system: SW-620 colon
[41] = system: T-47D breast
[42] = system: TK-10 renal
[43] = system: U251 CNS
[44] = system: UACC-257 melanoma
[45] = system: UACC-62 melanoma
[46] = system: UO-31 renal
[47] = system: DU-145 prostate
[48] = system: LOX IMVI melanoma
[49] = system: MDA-MB-435
[50] = system: NCI-H522 lung
[51] = system: OVCAR-3 ovarian
[52] = system: OVCAR-4 ovarian
[53] = system: SF-268 CNS
[54] = system: SF-295 CNS
[55] = system: SR leukemia

CCOC(=O)C1(C)CCc2sc(N)c(C#N)c21 (stereo unspecified) gave a TGI [1] greater than 100 µM, a TGI [2] greater than 100 µM and a TGI [3] greater than 100 µM. It also gave a TGI [4] greater than 100 µM, a TGI [5] greater than 100 µM and a TGI [6] greater than 100 µM. The TGI [7] was greater than 100 µM, the TGI [8] was greater than 100 µM and the TGI [9] was greater than 100 µM. It also gave a TGI [10] greater than 100 µM, a TGI [11] greater than 100 µM and a TGI [12] greater than 100 µM. It also gave a TGI [13] greater than 100 µM, a TGI [14] greater than 100 µM and a TGI [15] greater than 100 µM. For the same molecule, the TGI [16] was greater than 100 µM, the TGI [17] was greater than 100 µM and the TGI [18] was greater than 100 µM. It also gave a TGI [19] greater than 100 µM, a TGI [20] greater than 100 µM and a TGI [21] greater than 100 µM. For the same molecule, the TGI [22] was greater than 100 µM, the TGI [23] was greater than 100 µM and the TGI [24] was greater than 100 µM. The TGI [25] was greater than 100 µM, the TGI [26] was greater than 100 µM and the TGI [27] was greater than 100 µM. The TGI [28] was greater than 100 µM, the TGI [29] was greater than 100 µM and the TGI [30] was greater than 100 µM. For the same molecule, the TGI [31] was greater than 100 µM, the TGI [32] was greater than 100 µM and the TGI [33] was greater than 100 µM. It also gave a TGI [34] greater than 100 µM, a TGI [35] greater than 100 µM and a TGI [36] greater than 100 µM. It also gave a TGI [37] greater than 100 µM, a TGI [38] greater than 100 µM and a TGI [39] greater than 100 µM. The TGI [40] was greater than 100 µM, the TGI [41] was greater than 100 µM and the TGI [42] was greater than 100 µM. It also gave a TGI [43] greater than 100 µM, a TGI [44] greater than 100 µM and a TGI [45] greater than 100 µM. The TGI [46] was greater than 100 µM.
With CN1CCN(C(=S)N(C(=O)c2cccs2)C2CCCCC2)CC1 the TGI [1] was greater than 100 µM, the TGI [3] was greater than 100 µM and the TGI [4] was greater than 100 µM. For the same molecule, the TGI [5] was greater than 100 µM, the TGI [6] was greater than 10 µM and the TGI [7] was greater than 100 µM. For the same molecule, the TGI [47] was greater than 100 µM, the TGI [9] was greater than 100 µM and the TGI [11] was greater than 100 µM. The TGI [12] was 54.2 µM, the TGI [14] was greater than 100 µM and the TGI [15] was greater than 100 µM. The TGI [16] was greater than 100 µM, the TGI [17] was greater than 100 µM and the TGI [18] was greater than 100 µM. For the same molecule, the TGI [19] was greater than 100 µM, the TGI [48] was greater than 100 µM and the TGI [20] was greater than 100 µM. It also gave a TGI [21] greater than 100 µM, a TGI [22] greater than 100 µM and a TGI [23] greater than 100 µM. The TGI [49] was greater than 100 µM, the TGI [24] was greater than 100 µM and the TGI [25] was greater than 10 µM. For the same molecule, the TGI [26] was greater than 100 µM, the TGI [27] was greater than 100 µM and the TGI [28] was greater than 100 µM. It also gave a TGI [50] greater than 100 µM, a TGI [51] greater than 100 µM and a TGI [52] greater than 100 µM. The TGI [29] was greater than 100 µM, the TGI [30] was greater than 100 µM and the TGI [32] was greater than 100 µM. It also gave a TGI [33] greater than 100 µM, a TGI [53] greater than 100 µM and a TGI [54] greater than 10 µM. It also gave a TGI [34] greater than 100 µM, a TGI [35] greater than 100 µM and a TGI [36] greater than 100 µM. The TGI [37] was greater than 100 µM, the TGI [38] was greater than 100 µM and the TGI [39] was greater than 100 µM. For the same molecule, the TGI [55] was greater than 100 µM, the TGI [40] was greater than 100 µM and the TGI [41] was greater than 100 µM. For the same molecule, the TGI [42] was greater than 100 µM, the TGI [43] was greater than 100 µM and the TGI [44] was greater than 100 µM. The TGI [45] was greater than 100 µM and the TGI [46] was greater than 100 µM.
